# Assay results reported in article PMC10265587 (European journal of medicinal chemistry, 2022).
# Entries after “also recorded” stand apart in the source; their conditions may differ.
# Key:
# [1] = tested on: Nrf2 target genes GSTM3, HMOX1, NQO1 in NCM460D cells; test: Expression of Nrf2-ARE regulated genes by RT-qPCR in NCM460D cells; type: cell-based; conditions: NCM460D cells, 100, 10 and 1 μM, 24 h, RT-PCR
# [2] = target: Keap1-Nrf2 PPI (Keap1 Kelch domain / FITC-9mer Nrf2 peptide amide) (Homo sapiens, UniProt Q14145); test: Fluorescence polarization; conditions: FP assay, triplicates
# Keap1-Nrf2 PPI (Keap1 Kelch domain / FITC-9mer Nrf2 peptide amide), sequence (Q14145 321-609 limits assumed): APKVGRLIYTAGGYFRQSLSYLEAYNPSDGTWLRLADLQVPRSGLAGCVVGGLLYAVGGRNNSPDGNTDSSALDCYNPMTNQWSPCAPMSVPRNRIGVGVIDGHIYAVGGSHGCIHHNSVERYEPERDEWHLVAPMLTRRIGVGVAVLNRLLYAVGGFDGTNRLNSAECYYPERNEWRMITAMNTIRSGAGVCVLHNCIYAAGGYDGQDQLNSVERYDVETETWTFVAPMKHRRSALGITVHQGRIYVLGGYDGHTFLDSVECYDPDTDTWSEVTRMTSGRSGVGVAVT
inhibition at 5 µM [2],SMILES,"transcription (mRNA levels) of Nrf2 target genes GSTM3, HMOX1 and NQO1 [1]"
,"Cc1ccc(S(=O)(=O)N(CC(=O)O)c2cc(OCc3ccc(F)cc3)c(N(CC(=O)O)S(=O)(=O)c3ccc(C)cc3)c3ccccc23)cc1 [12d, 2-(4-Fluorobenzyloxy)-1,4-bis(4-methylphenylsulfonamido)naphthalene-N,N'-diacetic acid]",significantly increased; also recorded: effectively stimulate transcription
~50%,"COc1ccc(S(=O)(=O)N(CC(=O)O)c2ccc(N(CC(=O)O)S(=O)(=O)c3ccc(OC)cc3)c(N3CCCCC3)c2)cc1 [7b, 2-(Piperidin-1-yl)-1,4-bis(4-methoxyphenylsulfonamido)benzene-N,N'-diacetic acid]",
,"Cc1ccc(S(=O)(=O)N(CC(=O)O)c2ccc(N(CC(=O)O)S(=O)(=O)c3ccc(C)cc3)c(OCc3ccc(F)cc3)c2)cc1 [7v, 2-(4-Fluorobenzyloxy)-1,4-bis(4-methylphenylsulfonamido)benzene-N,N'-diacetic acid]",no effects
